Measured values as given in PubChem BioAssay AID2060902 (Molecular Pharmacology Branch, DTP, NCI, 2025).

System: 485368-065-R3-J5-PDC spheroids with HUVEC/MSC, viability
Assay: Anticancer human tumor 485368-065-R3-J5-PDC patient-derived pancreatic carcinoma cell line growth inhibition [RAS]
Conditions: for IC50: curve of first compound; for viability, T/C: stronger effect = lower value
How it was run: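 Agents were tested in combination matrices in half-log decrements from a top concentration at or near clinical Cmax (10 microM if undetermined). Targets were multi-cell spheroids of tumour lines plus HUVEC and MSC stromal cells.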

[1] = second compound 0.00316 µM, first compound 0.0316 µM
[2] = second compound 0.00316 µM, first compound 0.1 µM
[3] = second compound 0.00316 µM, first compound 0.316 µM
[4] = second compound 0.00316 µM, first compound 1 µM
[5] = second compound 0.00316 µM, first compound 3.16 µM
[6] = second compound 0.00316 µM, first compound 10 µM
[7] = second compound 0.01 µM, first compound 0.0316 µM
[8] = second compound 0.01 µM, first compound 0.1 µM
[9] = second compound 0.01 µM, first compound 0.316 µM
[10] = second compound 0.01 µM, first compound 1 µM
[11] = second compound 0.01 µM, first compound 3.16 µM
[12] = second compound 0.01 µM, first compound 10 µM
[13] = second compound 0.0316 µM, first compound 0.0316 µM
[14] = second compound 0.0316 µM, first compound 0.1 µM
[15] = second compound 0.0316 µM, first compound 0.316 µM
[16] = second compound 0.0316 µM, first compound 1 µM
[17] = second compound 0.0316 µM, first compound 3.16 µM
[18] = second compound 0.0316 µM, first compound 10 µM
[19] = second compound 0.1 µM, first compound 0.0316 µM
[20] = second compound 0.1 µM, first compound 0.1 µM
[21] = second compound 0.1 µM, first compound 0.316 µM
[22] = second compound 0.1 µM, first compound 1 µM
[23] = second compound 0.1 µM, first compound 3.16 µM
[24] = second compound 0.1 µM, first compound 10 µM
[25] = second compound 0.316 µM, first compound 0.0316 µM
[26] = second compound 0.316 µM, first compound 0.1 µM
[27] = second compound 0.316 µM, first compound 0.316 µM
[28] = second compound 0.316 µM, first compound 1 µM
[29] = second compound 0.316 µM, first compound 3.16 µM
[30] = second compound 0.316 µM, first compound 10 µM
[31] = second compound 1 µM, first compound 0.0316 µM
[32] = second compound 1 µM, first compound 0.1 µM
[33] = second compound 1 µM, first compound 0.316 µM
[34] = second compound 1 µM, first compound 1 µM
[35] = second compound 1 µM, first compound 3.16 µM
[36] = second compound 1 µM, first compound 10 µM
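Note: spheroids exposed to agents for seven days before readout.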

Structure (SMILES): NC1c2ccccc2OC12CCN(c1cnc3c(N4CCCc5ncccc54)n[nH]c3n1)CC2 (centres undefined) + C=CC(=O)N1CCN(c2nc(OCC3CCCN3C)nc3c(F)c(-c4nc(N)cc(C)c4C(F)(F)F)c(Cl)cc23)C(C)C1
- IC50 (second compound 0.00316 µM): > 10 µM
- IC50 (second compound 0.01 µM): > 10 µM
- IC50 (second compound 0.0316 µM): > 10 µM
- IC50 (second compound 0.1 µM): > 10 µM
- IC50 (second compound 0.316 µM): > 10 µM
- IC50 (second compound 1 µM): > 10 µM
- viability, T/C [1]: 83.2%
- viability, T/C [2]: 60.2%
- viability, T/C [3]: 78.5%
- viability, T/C [4]: 72.2%
- viability, T/C [5]: 67%
- viability, T/C [6]: 69.8%
- viability, T/C [7]: 87.7%
- viability, T/C [8]: 76.8%
- viability, T/C [9]: 67.5%
- viability, T/C [10]: 64.4%
- viability, T/C [11]: 77%
- viability, T/C [12]: 65.7%
- viability, T/C [13]: 81.2%
- viability, T/C [14]: 88.2%
- viability, T/C [15]: 64.1%
- viability, T/C [16]: 67.4%
- viability, T/C [17]: 72.5%
- viability, T/C [18]: 69.8%
- viability, T/C [19]: 82.4%
- viability, T/C [20]: 75.8%
- viability, T/C [21]: 61.1%
- viability, T/C [22]: 74.9%
- viability, T/C [23]: 78%
- viability, T/C [24]: 74.6%
- viability, T/C [25]: 72.1%
- viability, T/C [26]: 79.2%
- viability, T/C [27]: 75.1%
- viability, T/C [28]: 64.1%
- viability, T/C [29]: 73.1%
- viability, T/C [30]: 60.4%
- viability, T/C [31]: 84.7%
- viability, T/C [32]: 77.5%
- viability, T/C [33]: 72.9%
- viability, T/C [34]: 60.6%
- viability, T/C [35]: 60.7%
- viability, T/C [36]: 54.9%

Structure (SMILES): C[C@@H](NC(=O)c1ncnc(N)c1Cl)c1ncc(C(=O)Nc2cc(C(F)(F)F)c(Cl)cn2)s1 + C=CC(=O)N1CCN(c2nc(OCC3CCCN3C)nc3c(F)c(-c4nc(N)cc(C)c4C(F)(F)F)c(Cl)cc23)C(C)C1
- IC50 (second compound 0.00316 µM): > 10 µM
- IC50 (second compound 0.01 µM): > 10 µM
- IC50 (second compound 0.0316 µM): > 10 µM
- IC50 (second compound 0.1 µM): > 10 µM
- IC50 (second compound 0.316 µM): > 10 µM
- IC50 (second compound 1 µM): > 10 µM
- viability, T/C [1]: 119%
- viability, T/C [2]: 99.9%
- viability, T/C [3]: 104%
- viability, T/C [4]: 95%
- viability, T/C [5]: 86.6%
- viability, T/C [6]: 73.7%
- viability, T/C [7]: 103%
- viability, T/C [8]: 105%
- viability, T/C [9]: 95.8%
- viability, T/C [10]: 104%
- viability, T/C [11]: 92.1%
- viability, T/C [12]: 77%
- viability, T/C [13]: 107%
- viability, T/C [14]: 94.8%
- viability, T/C [15]: 104%
- viability, T/C [16]: 104%
- viability, T/C [17]: 91.8%
- viability, T/C [18]: 78.6%
- viability, T/C [19]: 108%
- viability, T/C [20]: 103%
- viability, T/C [21]: 107%
- viability, T/C [22]: 103%
- viability, T/C [23]: 94.6%
- viability, T/C [24]: 77%
- viability, T/C [25]: 104%
- viability, T/C [26]: 106%
- viability, T/C [27]: 107%
- viability, T/C [28]: 102%
- viability, T/C [29]: 98.6%
- viability, T/C [30]: 80.2%
- viability, T/C [31]: 105%
- viability, T/C [32]: 111%
- viability, T/C [33]: 94.7%
- viability, T/C [34]: 104%
- viability, T/C [35]: 96.5%
- viability, T/C [36]: 81.4%
